Measured values published in patent US9718828B2 (MERCK SHARP & DOHME CORP., priority 2011, dated 2017).
Structures can show the parent of a compound that is named as a salt. Where two headings read alike, the source gives them in different places.

Molecular target: Btk enzyme (His-Btk) (Homo sapiens (Human), UniProt Q06187)
Test: Btk enzyme activity, IMAP fluorescence polarization assay (Assay Method A)
[1] = read-out: EC50 Btk activity values - Assay Method A, IMAP-FP, 60 min pre-incubation, 5 μM ATP, class 100-1000 is given as ≧100 nM-<1 μM

Sequence of Btk enzyme (His-Btk) (Q06187 whole entry): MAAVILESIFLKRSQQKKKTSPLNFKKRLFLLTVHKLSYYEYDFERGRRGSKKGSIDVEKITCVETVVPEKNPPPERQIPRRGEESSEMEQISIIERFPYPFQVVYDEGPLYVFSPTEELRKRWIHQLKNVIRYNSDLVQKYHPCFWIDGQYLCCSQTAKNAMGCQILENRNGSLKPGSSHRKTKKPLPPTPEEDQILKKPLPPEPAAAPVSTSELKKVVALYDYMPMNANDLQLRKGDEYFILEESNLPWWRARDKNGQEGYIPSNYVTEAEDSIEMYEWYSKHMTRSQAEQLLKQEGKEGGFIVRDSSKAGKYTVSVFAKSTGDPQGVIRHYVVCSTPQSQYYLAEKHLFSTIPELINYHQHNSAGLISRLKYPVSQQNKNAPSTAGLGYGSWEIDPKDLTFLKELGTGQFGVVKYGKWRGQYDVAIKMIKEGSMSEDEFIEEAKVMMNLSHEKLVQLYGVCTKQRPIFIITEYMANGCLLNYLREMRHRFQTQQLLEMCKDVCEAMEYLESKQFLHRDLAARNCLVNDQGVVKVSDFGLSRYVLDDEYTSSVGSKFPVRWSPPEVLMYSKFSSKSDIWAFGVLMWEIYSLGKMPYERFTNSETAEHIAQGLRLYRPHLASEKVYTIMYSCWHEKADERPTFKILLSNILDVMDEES
Protocol: Inhibition of kinase activity can be measured using the Immobilized Metal Assay for Phosphochemicals (IMAP) assay. IMAP is a homogeneous fluorescence polarization (FP) assay based on affinity capture of phosphorylated peptide substrates. IMAP uses fluorescein-labeled peptide substrates that, upon phosphorylation by a protein kinase, bind to so-called IMAP nanoparticles, which are derivatized with trivalent metal complexes.
Btk enzyme activity is measured using the IMAP (immobilized metal ion affinity-based fluorescence polarization) assay as outlined below.
Test compounds and Btk enzyme are pre-incubated 60 minutes at room temperature, before adding 5 μL/well of 200 nM Fluorescin labeled substrate peptide (Blk/Lyntide substrate, e.g. #R7188/#R7233, Molecular Devices) in KR-buffer. Final peptide substrate concentration in assay is 50 nM. […] Following incubation for 2 h at room temperature the enzyme reaction is stopped by adding 40 μL/well IMAP Progressive Binding Solution (according to suppliers (Molecular Devices) protocol using 75% 1× buffer A and 25% 1× buffer B with 1:600 Progressive Binding Solution). After 60 min incubation at room temperature in the dark the FP signal is read. […] Values are calculated as percentage of the difference in readout (ΔmPi) of the controls with and without ATP. EC50 values are determined by curve fitting of the experimental results using Activity Base.

EC50 [nM]	EC50 [1] [nM]	Structure (SMILES)
	< 10	Nc1nccn2c(N3CCCC(C(=O)NC[C@@H]4CCCO4)C3)nc(-c3ccc(C(=O)Nc4ccccn4)cc3)c12 (stereo partly drawn) [Example 227, 1-(8-amino-1-(4-(pyridin-2-ylcarbamoyl)phenyl)imidazo[1,5-a]pyrazin-3-yl)-N-(((S)-tetrahydrofuran-2-yl)methyl)piperidine-3-carboxamide, TFA salt]
	< 10	CC(C)NC(=O)C1CCCN(c2nc(-c3ccc(C(=O)Nc4cc(C(F)(F)F)ccn4)cc3)c3c(N)nccn23)C1 (centres unmarked) [Example 224, 1-(8-amino-1-(4-(4-(trifluoromethyl)pyridin-2-ylcarbamoyl)phenyl)imidazo[1,5-a]pyrazin-3-yl)-N-isopropylpiperidine-3-carboxamide]
100 to 1000		Cc1nc(-c2ccc(C(=O)Nc3cc(C(F)(F)F)ccn3)cc2)c2c(N)ncc(C(=O)NCc3cnco3)n12 [Example 297, 8-amino-3-methyl-N-(oxazol-5-ylmethyl)-1-(4-(4-(trifluoromethyl)pyridin-2-ylcarbamoyl)phenyl)imidazo[1,5-a]pyrazine-5-carboxamide]
10 to 100		CC(C)(C)NC(=O)C1CCCN(c2nc(-c3ccc(C(=O)Nc4ccccn4)cc3)c3c(N)nccn23)C1 (centres unmarked) [Example 228, 1-(8-amino-1-(4-(pyridin-2-ylcarbamoyl)phenyl)imidazo[1,5-a]pyrazin-3-yl)-N-tert-butylpiperidine-3-carboxamide, TFA salt]

Continued, compound first:

Structure (SMILES)	EC50 [nM]	EC50 [1] [nM]
CCC(=O)N1CCC[C@@H](c2nc(-c3ccc(C(=O)Nc4ccccn4)cc3)c3c(N)nccn23)C1 [Example 46, (R)-4-(8-amino-3-(1-propionylpiperidin-3-yl)imidazo[1,5-a]pyrazin-1-yl)-N-(pyridin-2-yl)benzamide]	< 10	
COCCC(=O)N1CCC[C@@H](c2nc(-c3ccc(C(=O)Nc4cc(C#N)ccn4)cc3)c3c(N)nccn23)C1 [Example 97, (R)-4-(8-amino-3-(1-(3-methoxypropanoyl)piperidin-3-yl)imidazo[1,5-a]pyrazin-1-yl)-N-(4-cyanopyridin-2-yl)benzamide]	< 10	
C[C@H]1CC[C@@H](c2nc(-c3ccc(C(=O)Nc4cc(C5CC5)ccn4)cc3)c3c(N)nccn23)CN1C(=O)CN1CCOC1=O (relative stereo) [Example 196, 4-(8-amino-3-((cis)-6-methyl-1-(2-(2-oxooxazolidin-3-yl)acetyl)piperidin-3-yl)imidazo[1,5-a]pyrazin-1-yl)-N-(4-cyclopropylpyridin-2-yl)benzamide, TFA salt]		< 10
Nc1nccn2c(C3CCOCC3)nc(-c3ccc(C(=O)Nc4ccccn4)cc3)c12 [Example 27, 4-(8-amino-3-(tetrahydro-2H-pyran-4-yl)imidazo[1,5-a]pyrazin-1-yl)-N-(pyridin-2-yl)benzamide]	10 to 100	
CC(C)C(=O)N1CCC[C@@H](c2nc(-c3ccc(C(=O)Nc4cc(C(F)(F)F)ccn4)cc3)c3c(N)nccn23)C1 [Example 104, (R)-4-(8-amino-3-(1-isobutyrylpiperidin-3-yl)imidazo[1,5-a]pyrazin-1-yl)-N-(4-(trifluoromethyl)pyridin-2-yl)benzamide]		< 10
Nc1nccn2c([C@@H]3CCCN(C(=O)C4CC4)C3)nc(-c3ccc(C(=O)Nc4ccccn4)cc3)c12 [Example 52, (R)-4-(8-amino-3-(1-(cyclopropanecarbonyl)piperidin-3-yl)imidazo[1,5-a]pyrazin-1-yl)-N-(pyridin-2-yl)benzamide]	< 10	
C[C@@H]1CC[C@@H](c2nc(-c3ccc(C(=O)Nc4cc(C(F)(F)F)ccn4)cc3)c3c(N)nccn23)CN1C(=O)C1CCCO1 (relative stereo) [Example 185, 4-(8-amino-3-((trans)-6-methyl-1-(tetrahydrofuran-2-carbonyl)piperidin-3-yl)imidazo[1,5-a]pyrazin-1-yl)-N-(4-(trifluoromethyl)pyridin-2-yl)benzamide, TFA salt]	10 to 100	
